Reference: patent publication US20240398757A1 (COCRYSTAL PHARMA, INC., priority 2022, published 2024)

Biological target: T1, SARS2 protease (Severe acute respiratory syndrome coronavirus 2, UniProt P0DTD1)
T1 construct: SARS2 protease was added to a final concentration of 30 nM
Test: SARS-CoV-2 protease inhibition assay (SARS2 FRET protease assay)
Format: biochemical
Details: IC50 (μM), SARS2 protease 30 nM, peptide substrate 1.3 μM, 120 minutes at 37° C., compounds 20 μM to 0.075 nM

First: CC(C)(c1cccc(F)c1)C(OC(=O)N[C@@H](CC1CCCCC1)C(=O)N[C@H](C=O)C[C@@H]1CCNC1=O)c1ccccc1 (some centres unmarked) [Compound A34]
Second: O=C[C@H](C[C@@H]1CCNC1=O)NC(=O)[C@H](CC1CCCCC1)NC(=O)O[C@@H](c1ccccc1)C(F)(F)c1cccc(Cl)c1 [Compound A125]
The IC50 of the first is 42-fold lower: 0.0001 µM for the first, 0.0042 µM for the second. The first is the more potent here.

`CC(C)C[C@H](NC(=O)OC(c1ccccc1)C1(c2cccc(Cl)c2)CCCCC1)C(=O)N[C@@H](C[C@@H]1CCNC1=O)C(=O)C(=O)NC1CC1` (some centres unmarked) [Compound A3] and `CC(C)C[C@H](NC(=O)OC(c1cccc(Cl)c1)C1(c2cccc(Cl)c2)CCC1)C(=O)N[C@@H](C[C@@H]1CCNC1=O)C(=O)C(=O)NC1CC1` (some centres unmarked) [Compound A16] are within 1.5-fold of each other in IC50: 0.52 µM for the first, 0.38 µM for the second.

First: O=C(N[C@@H](CC1CCCCC1)C(=O)N[C@@H](C[C@@H]1CCNC1=O)C(O)S(=O)(=O)O)O[C@H](c1ccccc1)C(F)(F)c1cccc(Cl)c1 (some centres unmarked) [Compound A135]
Second: O=C(N[C@@H](CC1CCCCC1)C(=O)N[C@@H](C[C@@H]1CCNC1=O)C(O)S(=O)(=O)O)OC(c1ccccc1)C(F)(F)c1cccc(Cl)c1 (some centres unmarked) [Compound A75]
The IC50 of the first is 4.1-fold lower: 0.0022 µM for the first, 0.009 µM for the second. The first is the more potent here.

`O=C(N[C@@H](CC1CCCCC1)C(=O)N[C@@H](C[C@@H]1CCNC1=O)C(=O)C(=O)NC1CC1)OC(c1ccccc1)C(F)(F)c1cccc(Cl)c1` (some centres unmarked) [Compound A21] and `CCNC(=O)C(=O)[C@H](C[C@@H]1CCNC1=O)NC(=O)[C@H](CC1CCC1)NC(=O)OC(c1ccccc1)C(F)(F)c1cccc(Cl)c1` (some centres unmarked) [Compound A132] are within 1.5-fold of each other in IC50: 0.06 µM for the first, 0.066 µM for the second.

Compared with `CCCC[C@H](NC(=O)O[C@H](c1ccccc1)C(F)(F)c1cccc(Cl)c1)C(=O)N[C@@H](C[C@@H]1CCNC1=O)C(=O)C(=O)NC1CC1` [Compound A137], `O=C(N[C@@H](CCC(F)F)C(=O)N[C@@H](C[C@@H]1CCNC1=O)C(=O)C(=O)NC1CC1)OC(c1ccccc1)C(F)(F)c1cccc(Cl)c1` (stereo partly drawn) [Compound A179, 2-(3-chlorophenyl)-2,2-difluoro-1-phenylethyl ((S)-1-(((S)-4-(cyclopropylamino)-3,4-dioxo-1-((S)-2-oxopyrrolidin-3-yl)butan-2-yl)amino)-5,5-difluoro-1-oxopentan-2-yl)carbamate] is 12-fold higher in IC50: 0.0005 µM for the first, 0.006 µM for the second.

First: CCCCC[C@H](NC(=O)O[C@@H](c1ccccc1)C(F)(F)c1cccc(Cl)c1)C(=O)N[C@H](C=O)C[C@@H]1CCNC1=O [Compound A151]
Second: CCCCC[C@H](NC(=O)OC(c1ccccc1)C(F)(F)c1cccc(Cl)c1)C(=O)N[C@H](C=O)C[C@@H]1CCNC1=O (some centres unmarked) [Compound A19]
The IC50 of the first is 35-fold lower: 0.0002 µM for the first, 0.007 µM for the second. The first is the more potent here.

Going from `CCCC[C@H](NC(=O)O[C@@H](c1ccccc1)C(C)(C)c1cccc(Cl)c1)C(=O)N[C@H](C=O)C[C@@H]1CCNC1=O` [Compound A61] to `CCCC[C@H](NC(=O)O[C@H](c1ccccc1)C(F)(F)c1cccc(F)c1)C(=O)N[C@H](C=O)C[C@@H]1CCNC1=O` [Compound A144], the IC50 rises from less than 0.0001 µM to 0.023 µM.

Compared with `CCCC[C@H](NC(=O)OC(c1ccc(F)cc1)C1(c2cccc(Cl)c2)CC1)C(=O)N[C@@H](C[C@@H]1CCNC1=O)C(=O)C(=O)NC1CC1` (some centres unmarked) [Compound A76], `CCCC[C@H](NC(=O)OC(c1ccccc1)C1(c2cccc(F)c2)CC1)C(=O)N[C@@H](C[C@@H]1CCNC1=O)C(=O)C(=O)NC1CC1` (some centres unmarked) [Compound A56] is 11-fold higher in IC50: 0.053 µM for the first, 0.56 µM for the second. The first is the more potent here.

Compared with `CCC(=O)OC([C@H](C[C@@H]1CCNC1=O)NC(=O)[C@H](CC1CCCCC1)NC(=O)O[C@H](c1ccccc1)C(F)(F)c1cccc(Cl)c1)S(=O)(=O)O` (some centres unmarked) [Compound A212], `CCC(=O)OC([C@H](C[C@@H]1CCNC1=O)NC(=O)[C@H](CC1CCCCC1)NC(=O)OC(c1ccccc1)C(F)(F)c1cccc(Cl)c1)S(=O)(=O)O` (some centres unmarked) [Compound A101] is 23-fold lower in IC50: 4.15 µM for the first, 0.178 µM for the second.

First: CC(C)C[C@H](NC(=O)O[C@H](c1cccc(F)c1)C(C)(C)c1cccc(Cl)c1)C(=O)N[C@@H](C[C@@H]1CCNC1=O)C(=O)C(=O)NC1CC1 [Compound A15]
Second: CC(C)C[C@H](NC(=O)OC(c1ccccc1)C(C)(C)c1cccc(Cl)c1)C(=O)N[C@@H](C[C@@H]1CCCNC1=O)C(=O)C(=O)NC1CC1 (some centres unmarked) [Compound A57]
The IC50 of the first is 3.6-fold lower: 0.31 µM for the first, 1.13 µM for the second.

Compared with `CCC(=O)OC([C@H](C[C@@H]1CCNC1=O)NC(=O)[C@H](CC1CCCCC1)NC(=O)O[C@@H](c1ccccc1)C(F)(F)c1cccc(Cl)c1)S(=O)(=O)O` (some centres unmarked) [Compound A211], `O=C[C@H](C[C@@H]1CCNC1=O)NC(=O)[C@H](CC1CCCC1)NC(=O)OC(c1ccccc1)C(F)(F)c1cccc(Cl)c1` (stereo partly drawn) [Compound A93, 2-(3-chlorophenyl)-2,2-difluoro-1-phenylethyl ((S)-3-cyclopentyl-1-oxo-1-(((S)-1-oxo-3-((S)-2-oxopyrrolidin-3-yl)propan-2-yl)amino)propan-2-yl)carbamate] is 1700-fold lower in IC50: 0.504 µM for the first, 0.0003 µM for the second.

`CC(C)C[C@H](NC(=O)O[C@@H](c1cccc(Cl)c1)C(C)(C)c1cccc(Cl)c1)C(=O)N[C@H](C=O)C[C@@H]1CCNC1=O` [Compound A139] and `CC(C)C[C@H](NC(=O)O[C@H](c1cccc(Cl)c1)C1(c2cccc(Cl)c2)CC1)C(=O)N[C@H](C=O)C[C@@H]1CCNC1=O` [Compound A38] are within 1.5-fold of each other in IC50: 0.003 µM for the first, 0.0034 µM for the second.

First: CCCC[C@H](NC(=O)OC(c1cccc(F)c1)C(F)(F)c1cccc(F)c1)C(=O)N[C@@H](C[C@@H]1CCNC1=O)C(=O)C(=O)NC1CC1 (some centres unmarked) [Compound A80]
Second: CCCC[C@H](NC(=O)O[C@@H](c1ccc(F)cc1)C(F)(F)c1cccc(Cl)c1)C(=O)N[C@@H](C[C@@H]1CCNC1=O)C(=O)C(=O)NC1CC1 [Compound A199]
The IC50 of the first is 3.5-fold lower: 0.14 µM for the first, 0.494 µM for the second. The first is the more potent here.

First: CCC(CC)(c1cccc(Cl)c1)C(OC(=O)N[C@@H](CC(C)C)C(=O)N[C@@H](C[C@@H]1CCNC1=O)C(=O)C(=O)NC1CC1)c1ccccc1 (some centres unmarked) [Compound A6]
Second: CC(C)C[C@H](NC(=O)O[C@@H](c1ccccc1)C(F)(F)c1cccc(Cl)c1)C(=O)N[C@@H](C[C@@H]1CCNC1=O)C(=O)C(=O)NC1CC1 [Compound A317]
The IC50 of the first is 600-fold higher: 0.24 µM for the first, 0.0004 µM for the second. The second is the more potent here.

Compared with `CCNC(=O)C(=O)[C@H](C[C@@H]1CCNC1=O)NC(=O)[C@H](Cc1ccc(Cl)cc1)NC(=O)OC(c1ccccc1)C(F)(F)c1cccc(Cl)c1` (stereo partly drawn) [Compound A263, 2-(3-chlorophenyl)-2,2-difluoro-1-phenylethyl ((S)-3-(4-chlorophenyl)-1-(((S)-4-(ethylamino)-3,4-dioxo-1-((S)-2-oxopyrrolidin-3-yl)butan-2-yl)amino)-1-oxopropan-2-yl)carbamate], `CCC(C)C[C@H](NC(=O)OC(c1ccccc1)C(F)(F)c1cccc(Cl)c1)C(=O)N[C@H](C=O)C[C@@H]1CCNC1=O` (some centres unmarked) [Compound A234] is 7000-fold lower in IC50: 7.02 µM for the first, 0.001 µM for the second.

`CCCC[C@H](NC(=O)OC(c1ccc(F)cc1)C(F)(F)c1cccc(Cl)c1)C(=O)N[C@H](C=O)C[C@@H]1CCNC1=O` (some centres unmarked) [Compound A69] and `CCCC[C@H](NC(=O)O[C@@H](c1cccc(F)c1)C(F)(F)c1cccc(F)c1)C(=O)N[C@H](C=O)C[C@@H]1CCNC1=O` [Compound A217] are within 1.5-fold of each other in IC50: 0.008 µM for the first, 0.01 µM for the second.

Going from `CCCC[C@H](NC(=O)OC(c1ccccc1)C(F)(F)c1cccc(Cl)c1)C(=O)NC(C)(C=O)CC1CCNC1=O` (some centres unmarked) [Compound A192] to `CCCC[C@H](NC(=O)OC(c1ccn(C)n1)C(F)(F)c1cccc(Cl)c1)C(=O)N[C@H](C=O)C[C@@H]1CCNC1=O` (some centres unmarked) [Compound A305], the IC50 falls from 0.978 µM to 0.0004 µM (2400-fold).

First: CC(C)C[C@H]1C(=O)N[C@H](C[C@@H]2CCNC2=O)[C@H](O)N1C(=O)OC(c1ccccc1)C1(c2cccc(Cl)c2)CCNCC1 (some centres unmarked) [Compound A59]
Second: CC(C)C[C@H](NC(=O)OC(c1cccc(Cl)c1)C1(c2cccc(Cl)c2)CCNCC1)C(=O)N[C@@H](C[C@@H]1CCNC1=O)C(=O)C(=O)NC1CC1 (some centres unmarked) [Compound A83]
The IC50 of the first is 32-fold higher: 16.1 µM for the first, 0.51 µM for the second. The second is the more potent here.

Compared with `CCCC[C@H](NC(=O)O[C@@H](c1ccncc1)C(F)(F)c1cccc(Cl)c1)C(=O)N[C@@H](C[C@@H]1CCNC1=O)C(=O)C(=O)NC1CC1` [Compound A303], `CCCC[C@H](NC(=O)OC(c1ccncc1)C(F)(F)c1cccc(Cl)c1)C(=O)N[C@@H](C[C@@H]1CCNC1=O)C(=O)C(=O)NC1CC1` (stereo partly drawn) [Compound A257, 2-(3-Chlorophenyl)-2,2-difluoro-1-(pyridin-4-yl)ethyl ((S)-1-(((S)-4-(cyclopropylamino)-3,4-dioxo-1-((S)-2-oxopyrrolidin-3-yl)butan-2-yl)amino)-1-oxohexan-2-yl)carbamate] is 550-fold lower in IC50: 0.055 µM for the first, 0.0001 µM for the second.

Going from `CCOC(=O)/C=C/[C@H](C[C@@H]1CCNC1=O)NC(=O)[C@H](CC(C)C)NC(=O)OC(c1ccccc1)C(F)(F)c1cccc(Cl)c1` (some centres unmarked) [Compound A128] to `CC(C)C[C@H](NC(=O)OC(c1ccccc1)C(F)(F)c1cccc(C2CCC2)c1)C(=O)N[C@H](C=O)C[C@@H]1CCNC1=O` (some centres unmarked) [Compound A314], the IC50 falls from 3.95 µM to 0.001 µM (4000-fold). The second is the more potent here.

`CCCCCOC(=O)N[C@@H](CC(C)C)C(=O)N[C@@H](C[C@@H]1CCNC1=O)C(=O)C(=O)NC1CC1` [Compound A12] and `CCCC[C@H](NC(=O)O[C@H](c1ccccc1)C(C)(C)c1cccc(Cl)c1)C(=O)N[C@@H](C[C@@H]1CCNC1=O)C(=O)C(=O)NC1CC1` [Compound A178] are within 1.5-fold of each other in IC50: 0.876 µM for the first, 1.04 µM for the second.

First: CC(C)C(OC(=O)N[C@@H](Cc1ccccc1)C(=O)N[C@H](C=O)C[C@@H]1CCNC1=O)C(F)(F)c1cccc(Cl)c1 (stereo partly drawn) [Compound A266, 1-(3-Chlorophenyl)-1,1-difluoro-3-methylbutan-2-yl ((S)-1-oxo-1-(((S)-1-oxo-3-((S)-2-oxopyrrolidin-3-yl)propan-2-yl)amino)-3-phenylpropan-2-yl)carbamate]
Second: CC(C)C[C@H](NC(=O)O[C@H](c1ccc(Cl)cc1)C1(c2cccc(Cl)c2)CC1)C(=O)N[C@H](C=O)C[C@@H]1CCNC1=O [Compound A45]
The IC50 of the first is 200-fold lower: 0.0001 µM for the first, 0.02 µM for the second.

Compared with `CCC(CC)(c1cccc(Cl)c1)C(OC(=O)N[C@@H](CC(C)C)C(=O)N[C@@H](C[C@@H]1CCNC1=O)C(=O)C(=O)NC1CC1)c1ccc(F)c(F)c1` (some centres unmarked) [Compound A22], `CC(C)C[C@H](NC(=O)O[C@H](c1cccc(Cl)c1)C1(c2cccc(Cl)c2)CC1)C(=O)N[C@@H](C[C@@H]1CCNC1=O)C(=O)C(=O)NC1CC1` [Compound A30] is 3.2-fold lower in IC50: 0.32 µM for the first, 0.1 µM for the second. The second is the more potent here.

`CCCC[C@H](NC(=O)OC(c1ccn(C)n1)C(F)(F)c1cccc(Cl)c1)C(=O)N[C@@H](C[C@@H]1CCNC1=O)C(=O)C(=O)NCC` (some centres unmarked) [Compound A313] gave an IC50 of 0.139 µM.
